ChEMBL document CHEMBL3397033, “Bioactive benzofuran derivatives: moracins A-Z in medicinal chemistry” (Eur J Med Chem, 2015)
≈ marks a conversion by molar mass, not a printed value.

Assays:
Pseudomonas aeruginosa [1] = assay: Antimicrobial activity against Pseudomonas aeruginosa by liquid microdilution assay; format: functional
Pseudomonas aeruginosa [2] = assay: Microbicidal activity against Pseudomonas aeruginosa by liquid microdilution assay; format: functional
[3] = Antioxidant activity in liver (unknown origin) assessed as inhibition of Fe2+/cysteine system-induced lipid peroxidation; format: functional, tissue-based; conditions: dose or concentration not given here
Staphylococcus aureus [4] = assay: Antimicrobial activity against methicillin-sensitive Staphylococcus aureus; format: functional
Candida albicans [5] = assay: Microbicidal activity against Candida albicans by liquid microdilution assay; format: functional
Micrococcus luteus = assay: Antimicrobial activity against Micrococcus luteus; format: functional
Citrobacter freundii [6] = assay: Microbicidal activity against Citrobacter freundii by liquid microdilution assay; format: functional
[7] = Antifungal activity against Fusarium lateritium f. sp. mori; format: functional
Morus alba = assay: Antioxidant activity in mulberry leaves assessed as UV-stress-induced free radical scavenging activity measured as inhibition of blue formazan at 100 uM; format: functional
[8] = Antifungal activity against Stigmina mori; format: functional
Microsporum audouinii [9] = assay: Microbicidal activity against Microsporum audouinii by liquid microdilution assay; format: functional
Citrobacter freundii [10] = assay: Antimicrobial activity against Citrobacter freundii by liquid microdilution assay; format: functional
Klebsiella pneumoniae [11] = assay: Microbicidal activity against Klebsiella pneumoniae by liquid microdilution assay; format: functional
[12] = target: Enoyl-[acyl-carrier-protein] reductase [NADPH] FabI (Staphylococcus aureus, UniProt Q6GI75); assay: Inhibition of Staphylococcus aureus FabI-mediated trans-2-octenoyl N-acetylcysteamine (t-o-NAC thioester) substrate reduction assessed as decrease in NADPH […]
Chain of Enoyl-[acyl-carrier-protein] reductase [NADPH] FabI (Q6GI75 whole entry): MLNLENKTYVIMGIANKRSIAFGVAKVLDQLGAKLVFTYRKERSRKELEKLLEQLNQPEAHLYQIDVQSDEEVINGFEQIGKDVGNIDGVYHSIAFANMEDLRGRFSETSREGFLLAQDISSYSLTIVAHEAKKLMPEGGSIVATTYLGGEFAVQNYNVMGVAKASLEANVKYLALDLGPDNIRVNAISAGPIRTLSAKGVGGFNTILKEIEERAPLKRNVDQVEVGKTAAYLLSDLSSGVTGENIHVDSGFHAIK

Escherichia coli [13] = assay: Microbicidal activity against Escherichia coli by liquid microdilution assay; format: functional
Staphylococcus aureus [14] = assay: Antimicrobial activity against methicillin-resistant Staphylococcus aureus CCARM3167 assessed as inhibition of cell growth by broth microdilution method; format: functional
Escherichia coli [15] = assay: Antimicrobial activity against Escherichia coli; format: functional
Staphylococcus aureus [16] = assay: Antimicrobial activity against methicillin-resistant Staphylococcus aureus; format: functional
Bacillus subtilis = assay: Antimicrobial activity against Bacillus subtilis; format: functional
Enterococcus faecalis [17] = assay: Antimicrobial activity against Streptococcus faecalis by liquid microdilution assay; format: functional
Escherichia coli [18] = assay: Antimicrobial activity against Escherichia coli by liquid microdilution assay; format: functional
Pseudomonas aeruginosa [19] = assay: Antimicrobial activity against Pseudomonas aeruginosa; format: functional
Shigella dysenteriae [20] = assay: Microbicidal activity against Shigella dysenteriae by liquid microdilution assay; format: functional
Bacillus cereus [21] = assay: Microbicidal activity against Bacillus cereus by liquid microdilution assay; format: functional
Staphylococcus aureus [22] = assay: Antimicrobial activity against Staphylococcus aureus by liquid microdilution assay; format: functional
Salmonella typhi [23] = assay: Antimicrobial activity against Salmonella typhi by liquid microdilution assay; format: functional, Salmonella enterica subsp. enterica serovar Typhi; conditions: Salmonella enterica
Staphylococcus aureus [24] = assay: Microbicidal activity against Staphylococcus aureus by liquid microdilution assay; format: functional
RAW264.7 [25] = assay: Antiinflammatory activity against mouse RAW264.7 cells assessed as reduction of IFNgamma-induced NO production; format: functional, cell-based
Shigella dysenteriae [26] = assay: Antimicrobial activity against Shigella dysenteriae by liquid microdilution assay; format: functional
RAW264.7 [27] = assay: Antiinflammatory activity against mouse RAW264.7 cells assessed as reduction of LPS-induced NO production; format: functional, cell-based
Bacillus cereus [28] = assay: Antimicrobial activity against Bacillus cereus by liquid microdilution assay; format: functional
Rosellinia necatrix = assay: Antifungal activity against Rosellinia necatrix; format: functional
Enterococcus faecalis [29] = assay: Microbicidal activity against Streptococcus faecalis by liquid microdilution assay; format: functional
Staphylococcus aureus [30] = assay: Inhibition of fatty acid biosynthesis in Staphylococcus aureus assessed as incorporation of [1-14C]acetate by scintillation counting analysis; format: functional, organism-based
[31] = Antifungal activity against Diaporthe nomurai; format: functional
[32] = Antifungal activity against Fusarium solani f. sp. mori; format: functional
Candida albicans [33] = assay: Antimicrobial activity against Candida albicans by liquid microdilution assay; format: functional
[34] = Antifungal activity against Fusarium roseum; format: functional
[35] = Antiinflammatory activity against rat PMN assessed as inhibition of PAF-induced beta-glucuronidase release relative to control; format: functional
Klebsiella pneumoniae [36] = assay: Antimicrobial activity against Klebsiella pneumoniae; format: functional
[37] = Inhibition of alpha-glucosidase (unknown origin); set-up: species or system Homo sapiens
Staphylococcus aureus [38] = assay: Inhibition of protein biosynthesis in Staphylococcus aureus assessed as incorporation of [14C]leucine by scintillation counting analysis; format: functional, organism-based
Staphylococcus aureus [39] = assay: Antimicrobial activity against Staphylococcus aureus RN4220 assessed as inhibition of cell growth by broth microdilution method; format: functional
[40] = Antifungal activity against Cochliobolus miyabeanus; format: functional; conditions: Bipolaris oryzae
Klebsiella pneumoniae [41] = assay: Antimicrobial activity against Klebsiella pneumoniae by liquid microdilution assay; format: functional
Salmonella typhi [42] = assay: Microbicidal activity against Salmonella typhi by liquid microdilution assay; format: functional, Salmonella enterica subsp. enterica serovar Typhi; conditions: Salmonella enterica
Microsporum audouinii [43] = assay: Antimicrobial activity against Microsporum audouinii by liquid microdilution assay; format: functional
[44] = target: T1, Hypoxia-inducible factor 1-alpha (Homo sapiens, UniProt Q16665); assay: Inhibition of HIF-1alpha in human Hep3B cells assessed as decrease in VEGF level at > 50 uM after 20 hrs by ELISA; format: cell-based; conditions: hep 3b2
T1 sequence (Q16665 whole entry): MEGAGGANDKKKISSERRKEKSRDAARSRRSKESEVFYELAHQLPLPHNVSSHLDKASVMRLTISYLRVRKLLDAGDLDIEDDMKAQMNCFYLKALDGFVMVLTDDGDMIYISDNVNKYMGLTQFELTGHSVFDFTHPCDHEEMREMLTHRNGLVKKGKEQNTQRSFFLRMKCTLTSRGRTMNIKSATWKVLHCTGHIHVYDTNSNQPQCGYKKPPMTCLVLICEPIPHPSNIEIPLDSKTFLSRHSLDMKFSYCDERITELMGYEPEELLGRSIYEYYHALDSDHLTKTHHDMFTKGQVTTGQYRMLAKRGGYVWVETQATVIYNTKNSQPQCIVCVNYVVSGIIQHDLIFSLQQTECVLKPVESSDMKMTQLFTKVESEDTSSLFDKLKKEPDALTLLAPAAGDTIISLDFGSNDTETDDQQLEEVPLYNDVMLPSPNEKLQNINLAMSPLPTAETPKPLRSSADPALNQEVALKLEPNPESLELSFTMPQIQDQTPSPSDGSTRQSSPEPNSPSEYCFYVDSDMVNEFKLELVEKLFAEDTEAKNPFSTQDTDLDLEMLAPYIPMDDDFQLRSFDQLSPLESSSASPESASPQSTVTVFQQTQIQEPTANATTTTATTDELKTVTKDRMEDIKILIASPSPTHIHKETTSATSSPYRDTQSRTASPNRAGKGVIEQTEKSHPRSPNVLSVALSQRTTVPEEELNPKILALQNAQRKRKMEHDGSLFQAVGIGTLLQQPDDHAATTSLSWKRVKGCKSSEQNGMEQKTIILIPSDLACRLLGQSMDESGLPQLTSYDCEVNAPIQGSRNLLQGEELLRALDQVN

[45] = Cytotoxicity against human Hep3B cells assessed as cell viability after 24 hrs by MTT assay; format: cell-based, Hep 3B2
[46] = target: T1, Hypoxia-inducible factor 1-alpha; assay: Inhibition of HIF-1alpha in human Hep3B cells cotransfected with pGL3-HRE-luciferase plasmid at > 50 uM after 24 hrs by dual-luciferase reporter assay; format: cell-based; conditions: hep 3b2
Mus musculus [47] = assay: Hypoglycemic activity in alloxan-induced diabetic mouse assessed as fasting blood glucose level at 50 mg/kg; format: functional
Mus musculus [48] = assay: Hypoglycemic activity in alloxan-induced diabetic mouse assessed as fasting blood glucose level at 10 mg/kg; format: functional

## CC(C)=CCc1c(O)cc(-c2cc3ccc(O)cc3o2)cc1O [MORACIN C]
Pseudomonas aeruginosa [1]
  MIC: 10 µg/mL (≈ 32.2 µM)
Pseudomonas aeruginosa [2]
  MBC: 39 µg/mL (≈ 126 µM)
[3]
  inhibition: 73%
Staphylococcus aureus [4]
  MIC: 6.25 µg/mL (≈ 20.1 µM)
Candida albicans [5]
  MFC: 156 µg/mL (≈ 503 µM)
Micrococcus luteus
  MIC: 12.5 µg/mL (≈ 40.3 µM)
Citrobacter freundii [6]
  MBC: 625 µg/mL (≈ 2010 µM)
[7]
  MIC: 7 µg/mL (≈ 22.6 µM)
Morus alba
  inhibition: 64%
[8]
  MIC: 112 µg/mL (≈ 361 µM)
Microsporum audouinii [9]
  MFC: 312 µg/mL (≈ 1010 µM)
Citrobacter freundii [10]
  MIC: 156 µg/mL (≈ 503 µM)
Klebsiella pneumoniae [11]
  MBC: 625 µg/mL (≈ 2010 µM)
[12]
  IC50: 83.8 µM
Escherichia coli [13]
  MBC: 78 µg/mL (≈ 251 µM)
Staphylococcus aureus [14]
  MIC: 32 µg/mL (≈ 103 µM)
Escherichia coli [15]
  MIC: > 100 µg/mL
Staphylococcus aureus [16]
  MIC: 12.5 µg/mL (≈ 40.3 µM)
Bacillus subtilis
  MIC: 3.13 µg/mL (≈ 10.1 µM)
Enterococcus faecalis [17]
  MIC: 39 µg/mL (≈ 126 µM)
Escherichia coli [18]
  MIC: 39 µg/mL (≈ 126 µM)
Pseudomonas aeruginosa [19]
  MIC: > 100 µg/mL
Shigella dysenteriae [20]
  MBC: 39 µg/mL (≈ 126 µM)
Bacillus cereus [21]
  MBC: 156 µg/mL (≈ 503 µM)
Staphylococcus aureus [22]
  MIC: 78 µg/mL (≈ 251 µM)
Salmonella typhi [23]
  MIC: 10 µg/mL (≈ 32.2 µM)
Staphylococcus aureus [24]
  MBC: 156 µg/mL (≈ 503 µM)
RAW264.7 [25]
  IC50: 8 µM
Shigella dysenteriae [26]
  MIC: 5 µg/mL (≈ 16.1 µM)
RAW264.7 [27]
  IC50: 8 µM
Bacillus cereus [28]
  MIC: 78 µg/mL (≈ 251 µM)
Rosellinia necatrix
  MIC: 3.5 µg/mL (≈ 11.3 µM)
Enterococcus faecalis [29]
  MBC: 78 µg/mL (≈ 251 µM)
Staphylococcus aureus [30]
  IC50: 74.8 µM
[31]
  MIC: 14 µg/mL (≈ 45.1 µM)
[32]
  MIC: 224 µg/mL (≈ 722 µM)
Candida albicans [33]
  MIC: 68 µg/mL (≈ 219 µM)
[34]
  MIC: 3.5 µg/mL (≈ 11.3 µM)
[35]
  inhibition (INH): 100%
Klebsiella pneumoniae [36]
  MIC: > 100 µg/mL
[37]
  IC50: 4.04 µM
Staphylococcus aureus [38]
  IC50: 188 µM
Staphylococcus aureus [39]
  MIC: 32 µg/mL (≈ 103 µM)
[40]
  MIC: 28 µg/mL (≈ 90.2 µM)
Klebsiella pneumoniae [41]
  MIC: 312 µg/mL (≈ 1010 µM)
Salmonella typhi [42]
  MBC: 39 µg/mL (≈ 126 µM)
Microsporum audouinii [43]
  MIC: 78 µg/mL (≈ 251 µM)

## Oc1cc(O)cc(-c2cc3ccc(O)cc3o2)c1 [MORACIN M]
Pseudomonas aeruginosa [1]
  MIC: 156 µg/mL (≈ 644 µM)
Pseudomonas aeruginosa [2]
  MBC: 625 µg/mL (≈ 2580 µM)
Staphylococcus aureus [4]
  MIC: 12.5 µg/mL (≈ 51.6 µM)
[44]
  IC50: Not Active
[45]
  IC50: > 30 µM
Micrococcus luteus
  MIC: 25 µg/mL (≈ 103 µM)
Microsporum audouinii [9]
  MFC: 312 µg/mL (≈ 1290 µM)
Citrobacter freundii [10]
  MIC: 312 µg/mL (≈ 1290 µM)
Klebsiella pneumoniae [11]
  MBC: 625 µg/mL (≈ 2580 µM)
Escherichia coli [13]
  MBC: 625 µg/mL (≈ 2580 µM)
[46]
  IC50: Not Active
Escherichia coli [15]
  MIC: > 100 µg/mL
Mus musculus [47]
  Activity: 20.08 mmol/L
Staphylococcus aureus [16]
  MIC: 25 µg/mL (≈ 103 µM)
Bacillus subtilis
  MIC: 100 µg/mL (≈ 413 µM)
Enterococcus faecalis [17]
  MIC: 78 µg/mL (≈ 322 µM)
Escherichia coli [18]
  MIC: 78 µg/mL (≈ 322 µM)
Pseudomonas aeruginosa [19]
  MIC: > 100 µg/mL
Shigella dysenteriae [20]
  MBC: 156 µg/mL (≈ 644 µM)
Salmonella typhi [23]
  MIC: 78 µg/mL (≈ 322 µM)
Shigella dysenteriae [26]
  MIC: 78 µg/mL (≈ 322 µM)
Mus musculus [48]
  Activity: 18.52 mmol/L
Enterococcus faecalis [29]
  MBC: 156 µg/mL (≈ 644 µM)
[35]
  inhibition (INH): 54%
Klebsiella pneumoniae [36]
  MIC: > 100 µg/mL
Klebsiella pneumoniae [41]
  MIC: 312 µg/mL (≈ 1290 µM)
Salmonella typhi [42]
  MBC: 156 µg/mL (≈ 644 µM)
Microsporum audouinii [43]
  MIC: 78 µg/mL (≈ 322 µM)
